This note sets out measurements from US20070082916A1, “Fungicidal mixtures for controlling rice pathogens” (BASF AKTIENGESEELSCHAFT, priority 2003, published 2007).

The subject of the experiment is Corticium sasakii. Briefly: Activity against sheath blight on rice caused by Corticium sasakii (protective spray on potted rice plants). Type of experiment: in vivo. As to conditions: individual active compound, rice cultivar Tai-Nong 67, evaluated after 11 days, untreated control 90% infection. How it is done:
1% by weight of the emulsifier Uniperol® EL (wetting agent having emulsifying and dispersing action based on ethoxylated alkylphenols) was added to this solution, and the solution was diluted with water to the desired concentration.
Use example—Activity against sheath blight on rice caused by Corticium sasakii
The next day, oat grains infected with Corticium sasakii were placed into the pots (in each case 5 grains per pot). The plants were then placed in a chamber at 26° C. and maximum atmospheric humidity.
Evaluation is carried out by determining the infected leaf areas in percent. These percentages were converted into efficacies.
The efficacy (E) is calculated as follows using Abbot's formula: E=(1−α/β)·100 • α corresponds to the fungicidal infection of the treated plants in % and • β corresponds to the fungicidal infection of the untreated (control) plants in %
An efficacy of 0 means that the infection level of the treated plants corresponds to that of the untreated control plants; an efficacy of 100 means that the treated plants are not infected.

Turning to `CC1CCN(c2c(-c3c(F)cccc3Cl)c(Cl)nc3ncnn23)CC1` [A], the “Efficacy in % of the untreated control” value (4 ppm in the spray liquor) is reported as 0%.

As to `CC(Nc1c(-c2c(F)cc(F)cc2F)c(Cl)nc2ncnn12)C(F)(F)F` (centres unmarked) [B], the “Efficacy in % of the untreated control” value (4 ppm in the spray liquor) was 67%.

Regarding `CC1CCN(c2c(-c3c(F)cc(F)cc3F)c(Cl)nc3ncnn23)CC1` [I, 5-chloro-7-(4-methylpiperidin-1-yl)-6-(2,4,6-trifluorophenyl)-[1,2,4]tri-azolo[1,5-a]pyrimidine], the “Efficacy in % of the untreated control” value (4 ppm in the spray liquor) came out at 33%.

As for `CN(C)C(=S)SSC(=S)N(C)C` [II.5, bis(dimethylthiocarbamoyl)disulfide], the “Efficacy in % of the untreated control” value stood at 0% (1 ppm in the spray liquor) and 0% (16 ppm in the spray liquor).

Turning to “manganese-ethylenebis(dithiocarbamate) [II.2]”, the “Efficacy in % of the untreated control” value runs as follows: (1 ppm in the spray liquor) 0%; (16 ppm in the spray liquor) 11%.

In the case of “manganese-ethylenebis(dithiocarbamate)zinc complex [II.1]”, the “Efficacy in % of the untreated control” value was found to be 0% (1 ppm in the spray liquor) and 11% (16 ppm in the spray liquor).

In the case of “zinc ammoniate-ethylenebis(dithiocarbamate) [II.3]”, the “Efficacy in % of the untreated control” value by setting is: (1 ppm in the spray liquor) 0%; (16 ppm in the spray liquor) 22%.
